Experimental data reported in patent US12479847B2 (DANA-FARBER CANCER INSTITUTE, INC., priority 2019, dated 2025).

How the values were obtained:
Assay in all cases: KINOMEscan (ScanMAX) kinase profiling
Format in all cases: binding
panel of 468 kinases [1] = target: T1, panel of 468 kinases (Homo sapiens, UniProt P15056, V600E); conditions: BRAF(V600E); 1 μM; read-out: % control
T1 construct: purchased KINOMEscan (ScanMAX) service

panel of 468 kinases [2] = target: T2, panel of 468 kinases (Homo sapiens, UniProt Q9H2G2); conditions: SLK; 1 μM; read-out: % control
T2 construct: purchased KINOMEscan (ScanMAX) service
T2 sequence (Q9H2G2 whole entry): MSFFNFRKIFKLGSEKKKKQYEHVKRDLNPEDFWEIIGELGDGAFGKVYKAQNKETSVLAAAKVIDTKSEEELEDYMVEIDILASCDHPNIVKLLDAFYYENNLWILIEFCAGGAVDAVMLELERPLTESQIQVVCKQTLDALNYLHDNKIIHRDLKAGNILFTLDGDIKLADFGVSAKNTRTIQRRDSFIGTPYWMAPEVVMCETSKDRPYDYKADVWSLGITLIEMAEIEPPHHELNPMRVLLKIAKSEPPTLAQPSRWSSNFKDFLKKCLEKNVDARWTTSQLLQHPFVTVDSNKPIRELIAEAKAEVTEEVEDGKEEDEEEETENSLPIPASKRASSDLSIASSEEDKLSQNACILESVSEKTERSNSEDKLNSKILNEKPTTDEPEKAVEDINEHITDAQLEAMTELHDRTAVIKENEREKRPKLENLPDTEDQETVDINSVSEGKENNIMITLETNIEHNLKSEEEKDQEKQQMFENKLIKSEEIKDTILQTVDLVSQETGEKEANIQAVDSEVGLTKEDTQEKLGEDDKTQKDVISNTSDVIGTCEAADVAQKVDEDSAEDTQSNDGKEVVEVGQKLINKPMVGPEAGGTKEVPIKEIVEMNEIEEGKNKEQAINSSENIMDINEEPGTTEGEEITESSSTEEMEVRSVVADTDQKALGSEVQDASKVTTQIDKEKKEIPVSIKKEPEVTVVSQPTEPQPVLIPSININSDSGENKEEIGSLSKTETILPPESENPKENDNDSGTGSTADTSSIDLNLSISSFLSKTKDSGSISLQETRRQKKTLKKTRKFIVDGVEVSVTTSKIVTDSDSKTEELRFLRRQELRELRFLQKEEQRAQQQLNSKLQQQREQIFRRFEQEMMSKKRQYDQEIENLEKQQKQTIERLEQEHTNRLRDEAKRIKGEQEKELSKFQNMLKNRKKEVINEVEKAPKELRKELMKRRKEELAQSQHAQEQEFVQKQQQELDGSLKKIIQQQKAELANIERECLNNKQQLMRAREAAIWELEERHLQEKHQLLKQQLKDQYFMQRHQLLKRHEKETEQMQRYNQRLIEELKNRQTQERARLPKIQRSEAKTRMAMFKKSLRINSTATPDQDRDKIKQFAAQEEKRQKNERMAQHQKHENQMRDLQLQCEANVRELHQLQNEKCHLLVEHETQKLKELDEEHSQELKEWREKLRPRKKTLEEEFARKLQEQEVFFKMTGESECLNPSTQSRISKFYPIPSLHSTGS

panel of 468 kinases [3] = target: T3, panel of 468 kinases (Homo sapiens, UniProt P48730); conditions: CSNK1D; 1 μM; read-out: % control
T3 construct: purchased KINOMEscan (ScanMAX) service

panel of 468 kinases [4] = target: T4, panel of 468 kinases (Homo sapiens, UniProt P30291); conditions: WEE1; 1 μM; read-out: % control
T4 construct: purchased KINOMEscan (ScanMAX) service
T4 sequence (P30291 whole entry): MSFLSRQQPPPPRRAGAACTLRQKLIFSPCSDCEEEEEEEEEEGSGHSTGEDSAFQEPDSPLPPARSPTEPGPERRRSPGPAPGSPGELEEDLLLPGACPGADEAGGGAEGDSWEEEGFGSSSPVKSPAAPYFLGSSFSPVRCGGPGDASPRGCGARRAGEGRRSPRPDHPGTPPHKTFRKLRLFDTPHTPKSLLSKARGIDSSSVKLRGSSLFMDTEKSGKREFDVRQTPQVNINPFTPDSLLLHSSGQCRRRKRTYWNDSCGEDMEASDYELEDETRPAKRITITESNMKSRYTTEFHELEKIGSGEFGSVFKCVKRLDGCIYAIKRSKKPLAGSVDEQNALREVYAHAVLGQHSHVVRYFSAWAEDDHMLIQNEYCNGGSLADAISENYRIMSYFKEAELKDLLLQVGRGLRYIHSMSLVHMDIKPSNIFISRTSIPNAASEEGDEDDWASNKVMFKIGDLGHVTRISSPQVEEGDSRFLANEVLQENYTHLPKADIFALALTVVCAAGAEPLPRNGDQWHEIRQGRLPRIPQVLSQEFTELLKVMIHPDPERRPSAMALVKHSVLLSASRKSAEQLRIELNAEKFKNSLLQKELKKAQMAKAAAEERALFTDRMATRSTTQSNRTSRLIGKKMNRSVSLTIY

panel of 468 kinases [5] = target: T5, panel of 468 kinases (Homo sapiens, UniProt O76039); conditions: CDKL5; 1 μM; read-out: % control
T5 construct: purchased KINOMEscan (ScanMAX) service
T5 sequence (O76039 1-960): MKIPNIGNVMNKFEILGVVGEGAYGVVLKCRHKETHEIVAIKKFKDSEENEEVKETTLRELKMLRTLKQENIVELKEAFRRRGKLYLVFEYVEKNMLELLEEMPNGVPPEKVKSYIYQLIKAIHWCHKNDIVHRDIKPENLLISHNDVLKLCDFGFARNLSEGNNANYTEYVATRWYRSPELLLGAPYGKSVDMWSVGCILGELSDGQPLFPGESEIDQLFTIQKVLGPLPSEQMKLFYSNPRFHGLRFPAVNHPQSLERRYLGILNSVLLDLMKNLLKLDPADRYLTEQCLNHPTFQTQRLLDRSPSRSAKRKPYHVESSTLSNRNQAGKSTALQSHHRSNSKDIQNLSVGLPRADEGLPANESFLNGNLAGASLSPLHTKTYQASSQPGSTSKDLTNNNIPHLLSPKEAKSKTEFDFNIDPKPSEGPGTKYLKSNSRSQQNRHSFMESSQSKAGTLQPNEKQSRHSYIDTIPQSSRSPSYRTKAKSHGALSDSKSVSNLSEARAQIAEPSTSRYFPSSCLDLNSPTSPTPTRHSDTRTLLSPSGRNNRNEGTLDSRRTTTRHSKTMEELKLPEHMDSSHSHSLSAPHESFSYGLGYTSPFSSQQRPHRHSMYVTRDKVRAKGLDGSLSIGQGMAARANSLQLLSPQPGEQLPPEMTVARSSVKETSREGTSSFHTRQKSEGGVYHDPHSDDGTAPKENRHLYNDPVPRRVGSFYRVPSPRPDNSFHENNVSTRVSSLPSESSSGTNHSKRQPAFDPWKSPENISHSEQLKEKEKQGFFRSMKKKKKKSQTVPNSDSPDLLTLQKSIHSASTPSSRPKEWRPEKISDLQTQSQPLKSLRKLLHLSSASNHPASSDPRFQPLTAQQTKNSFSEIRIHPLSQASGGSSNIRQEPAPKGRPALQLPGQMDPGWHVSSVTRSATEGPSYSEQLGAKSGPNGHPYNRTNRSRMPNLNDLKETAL

panel of 468 kinases [6] = target: T6, panel of 468 kinases (Homo sapiens, UniProt Q96D53); conditions: ADCK4; 1 μM; read-out: % control
T6 construct: purchased KINOMEscan (ScanMAX) service
T6 sequence (Q96D53 1-544): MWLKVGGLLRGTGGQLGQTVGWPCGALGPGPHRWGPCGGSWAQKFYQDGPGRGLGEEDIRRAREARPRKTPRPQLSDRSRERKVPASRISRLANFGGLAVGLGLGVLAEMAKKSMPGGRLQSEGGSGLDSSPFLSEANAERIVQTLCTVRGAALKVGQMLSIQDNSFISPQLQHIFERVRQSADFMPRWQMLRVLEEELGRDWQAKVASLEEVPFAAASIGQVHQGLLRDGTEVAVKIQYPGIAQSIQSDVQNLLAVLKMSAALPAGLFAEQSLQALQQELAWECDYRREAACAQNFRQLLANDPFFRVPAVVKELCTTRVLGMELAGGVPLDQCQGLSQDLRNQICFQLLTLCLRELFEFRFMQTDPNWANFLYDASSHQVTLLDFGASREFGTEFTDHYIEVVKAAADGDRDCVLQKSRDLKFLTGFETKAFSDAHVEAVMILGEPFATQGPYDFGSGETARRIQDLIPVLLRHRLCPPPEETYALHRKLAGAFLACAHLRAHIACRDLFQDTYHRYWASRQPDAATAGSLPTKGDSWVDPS

panel of 468 kinases [7] = target: T7, panel of 468 kinases (Homo sapiens, UniProt P08631); conditions: HCK; 1 μM; read-out: % control
T7 construct: purchased KINOMEscan (ScanMAX) service
T7 sequence (P08631 whole entry): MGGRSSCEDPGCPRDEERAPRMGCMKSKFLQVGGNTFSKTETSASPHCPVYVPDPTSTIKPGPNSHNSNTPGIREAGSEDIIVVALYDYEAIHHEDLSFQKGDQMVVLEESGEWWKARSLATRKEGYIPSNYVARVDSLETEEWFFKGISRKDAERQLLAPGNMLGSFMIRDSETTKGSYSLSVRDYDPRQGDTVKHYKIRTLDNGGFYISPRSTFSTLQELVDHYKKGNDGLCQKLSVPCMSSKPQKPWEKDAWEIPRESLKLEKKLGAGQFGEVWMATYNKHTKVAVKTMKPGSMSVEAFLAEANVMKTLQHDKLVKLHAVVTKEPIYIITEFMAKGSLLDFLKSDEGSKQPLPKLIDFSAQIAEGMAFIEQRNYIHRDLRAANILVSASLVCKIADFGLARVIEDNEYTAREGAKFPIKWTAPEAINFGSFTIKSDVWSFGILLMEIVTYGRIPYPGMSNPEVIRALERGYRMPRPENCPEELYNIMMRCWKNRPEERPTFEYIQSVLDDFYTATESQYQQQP

panel of 468 kinases [8] = target: T8, panel of 468 kinases (Homo sapiens, UniProt P36894); conditions: BMPR1A; 1 μM; read-out: % control
T8 construct: purchased KINOMEscan (ScanMAX) service
T8 sequence (P36894 24-532): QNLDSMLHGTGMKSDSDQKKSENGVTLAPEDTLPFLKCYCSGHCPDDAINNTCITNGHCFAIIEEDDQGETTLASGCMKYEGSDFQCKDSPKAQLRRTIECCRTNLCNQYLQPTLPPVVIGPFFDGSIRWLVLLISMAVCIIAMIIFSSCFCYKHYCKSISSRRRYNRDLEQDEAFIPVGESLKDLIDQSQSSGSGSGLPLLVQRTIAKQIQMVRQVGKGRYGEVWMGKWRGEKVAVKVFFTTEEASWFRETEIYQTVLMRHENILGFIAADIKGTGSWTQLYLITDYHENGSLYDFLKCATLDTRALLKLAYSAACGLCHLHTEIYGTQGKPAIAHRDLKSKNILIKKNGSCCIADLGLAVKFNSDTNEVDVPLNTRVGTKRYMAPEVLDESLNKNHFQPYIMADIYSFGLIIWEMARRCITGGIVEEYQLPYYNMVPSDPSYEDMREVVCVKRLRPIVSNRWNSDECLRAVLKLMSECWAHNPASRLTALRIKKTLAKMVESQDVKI

panel of 468 kinases [9] = target: T9, panel of 468 kinases (Homo sapiens, UniProt O43293); conditions: DAPK3; 1 μM; read-out: % control
T9 construct: purchased KINOMEscan (ScanMAX) service
T9 sequence (O43293 whole entry): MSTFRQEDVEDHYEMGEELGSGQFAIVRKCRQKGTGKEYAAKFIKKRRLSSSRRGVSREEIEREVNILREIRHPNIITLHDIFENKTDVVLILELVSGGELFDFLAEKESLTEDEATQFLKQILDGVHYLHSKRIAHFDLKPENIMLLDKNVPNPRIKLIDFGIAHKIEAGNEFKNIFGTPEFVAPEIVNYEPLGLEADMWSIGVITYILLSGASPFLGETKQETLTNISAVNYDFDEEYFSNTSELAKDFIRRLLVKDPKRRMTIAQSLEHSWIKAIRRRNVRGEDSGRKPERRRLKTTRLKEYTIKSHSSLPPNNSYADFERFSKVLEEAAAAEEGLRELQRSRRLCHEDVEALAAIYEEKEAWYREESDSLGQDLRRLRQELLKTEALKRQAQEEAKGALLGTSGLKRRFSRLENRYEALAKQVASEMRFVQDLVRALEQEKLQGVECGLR

panel of 468 kinases [10] = target: T10, panel of 468 kinases (Homo sapiens, UniProt Q96RR4); conditions: CAMKK2; 1 μM; read-out: % control
T10 construct: purchased KINOMEscan (ScanMAX) service
T10 sequence (Q96RR4 whole entry): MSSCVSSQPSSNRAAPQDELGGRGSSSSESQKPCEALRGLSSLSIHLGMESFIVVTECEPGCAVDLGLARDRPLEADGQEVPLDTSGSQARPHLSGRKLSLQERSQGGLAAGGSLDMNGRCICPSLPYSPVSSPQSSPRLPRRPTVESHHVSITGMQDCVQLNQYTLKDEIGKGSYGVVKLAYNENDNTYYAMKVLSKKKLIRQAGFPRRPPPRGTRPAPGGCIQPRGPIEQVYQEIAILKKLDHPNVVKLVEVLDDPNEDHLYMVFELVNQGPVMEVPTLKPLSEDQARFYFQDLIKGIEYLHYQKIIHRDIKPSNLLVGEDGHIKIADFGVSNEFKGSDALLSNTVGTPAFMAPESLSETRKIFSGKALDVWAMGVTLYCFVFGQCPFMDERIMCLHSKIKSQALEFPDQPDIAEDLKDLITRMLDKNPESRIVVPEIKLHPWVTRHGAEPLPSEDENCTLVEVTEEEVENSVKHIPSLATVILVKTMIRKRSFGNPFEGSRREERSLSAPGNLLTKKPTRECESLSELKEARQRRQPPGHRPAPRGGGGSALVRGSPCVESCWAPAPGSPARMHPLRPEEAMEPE

panel of 468 kinases [11] = target: T11, panel of 468 kinases (Homo sapiens, UniProt P00533, L861Q); conditions: EGFR(L861Q); 1 μM; read-out: % control
T11 construct: purchased KINOMEscan (ScanMAX) service

T1 sequence (P15056 whole entry V600E): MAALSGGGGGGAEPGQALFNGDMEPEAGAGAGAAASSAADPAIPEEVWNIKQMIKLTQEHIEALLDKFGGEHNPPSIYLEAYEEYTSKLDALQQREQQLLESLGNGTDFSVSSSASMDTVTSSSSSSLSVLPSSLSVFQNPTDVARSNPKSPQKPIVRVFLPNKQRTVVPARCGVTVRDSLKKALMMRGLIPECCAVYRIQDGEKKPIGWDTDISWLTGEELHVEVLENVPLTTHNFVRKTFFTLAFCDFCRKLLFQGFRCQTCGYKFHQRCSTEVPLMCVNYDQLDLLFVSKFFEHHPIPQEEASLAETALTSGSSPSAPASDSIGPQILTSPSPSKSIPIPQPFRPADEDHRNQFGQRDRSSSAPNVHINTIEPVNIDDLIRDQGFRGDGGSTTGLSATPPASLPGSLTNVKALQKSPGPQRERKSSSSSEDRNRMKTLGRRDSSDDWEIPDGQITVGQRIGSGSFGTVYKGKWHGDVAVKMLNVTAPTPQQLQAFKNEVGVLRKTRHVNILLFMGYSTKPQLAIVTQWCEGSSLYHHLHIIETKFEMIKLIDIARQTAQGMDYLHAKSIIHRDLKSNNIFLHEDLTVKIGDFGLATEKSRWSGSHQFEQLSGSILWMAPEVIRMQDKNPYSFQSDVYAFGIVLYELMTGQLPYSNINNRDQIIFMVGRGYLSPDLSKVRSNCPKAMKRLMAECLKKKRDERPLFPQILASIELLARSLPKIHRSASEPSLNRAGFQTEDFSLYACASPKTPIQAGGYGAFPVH

Compound | remaining binding at 1 µM (panel of 468 kinases [1]) | remaining binding at 1 µM (panel of 468 kinases [2]) | remaining binding at 1 µM (panel of 468 kinases [3]) | remaining binding at 1 µM (panel of 468 kinases [4]) | remaining binding at 1 µM (panel of 468 kinases [5]) | remaining binding at 1 µM (panel of 468 kinases [6]) | remaining binding at 1 µM (panel of 468 kinases [7]) | remaining binding at 1 µM (panel of 468 kinases [8]) | remaining binding at 1 µM (panel of 468 kinases [9]) | remaining binding at 1 µM (panel of 468 kinases [10]) | remaining binding at 1 µM (panel of 468 kinases [11])
CNc1nc(Nc2ccc(S(=O)(=O)N3CCC(N4CCOCC4)CC3)cc2OC)nc2[nH]cc(Cl)c12 [Compound 12, 5-chloro-N2-(2-methoxy-4-((4-morpholinopiperidin-1-yl)sulfonyl)phenyl)-N4-methyl-7H-pyrrolo[2,3-d]pyrimidine-2,4-diamine] | 91% | 100% | 9.5% | 78% | 83% | 100% | 98% | 96% | 35% | 68% | 100%
CNc1nc(Nc2ccc(C(=O)N3CCC(N4CCOCC4)CC3)c3c2OCO3)nc2[nH]cc(Cl)c12 [Compound 75, (7-((5-chloro-4-(methylamino)-7H-pyrrolo[2,3-d]pyrimidin-2-yl)amino)benzo[d][1,3]dioxol-4-yl)(4-morpholinopiperidin-1-yl)methanone] | 100% | 100% | 15% | 95% | 83% | 100% | 100% | 85% | 16% | 42% | 100%
CNc1nc(Nc2ccc(P3(=O)CCN(C4CCOCC4)CC3)cc2OC)nc2[nH]cc(Cl)c12 [Compound 77, 4-(4-((5-chloro-4-(methylamino)-7H-pyrrolo[2,3-d]pyrimidin-2-yl)amino)-3-methoxyphenyl)-1-(tetrahydro-2H-pyran-4-yl)-1,4-azaphosphinane 4-oxide] | 88% | 100% | 8.9% | 93% | 91% | 81% | 100% | 96% | 9.9% | 25% | 100%
